Laboratory results published in patent US20240316171A1, “COMPOSITIONS AND METHODS FOR TARGETED IMMUNOTHERAPY” (Dana-Farber Cancer Institute, Inc., priority 2018, published 2024).
Read-outs that look alike come from different tables or passages of the source.

Columns and labels:
[1] = Uncaging in samples not treated with H2O2; format: physicochemical
From the text: Fluorescence-detected HPLC confirmed that H2O2 reaction with compound 3 produced the desired product (4). […] Addition of 0.5M EDTA, pH 8.0 (Ultrapure Grade, Boston BioProducts) to the samples remedied the undesired uncaging of the compounds.

[2] = Stock solutions/solubility; format: physicochemical; conditions: thermodynamic from solid
Procedure: Compound 1 was not soluble in buffer solution 50 mM 4-(2-hydroxyethyl)-1-piperazineethanesulfonic acid (HEPES) pH 7 at 2 mg/ml at room temperature overnight. In contrast, DMSO readily dissolved compound 1 at 2 mg/ml forming a clear solution. Compound 2 dissolved immediately at 1.5 mg/ml in buffer solution 50 mM HEPES pH 7 forming a yellow solution.

[3] = Uncaging of compound 1 with hydrogen peroxide (fluorescence, HPLC); conditions: relatively high H2O2 concentrations (100 mM), HPLC analysis of products
Procedure: Hydrogen peroxide is expected to uncage compound 1 to produce compound 2. […] 20 μM compound 1 samples were prepared by 1:100 dilution of stock into 50 mM HEPES pH 7 buffer and the reaction started by […] to give final concentrations of 0.3, 0.03 or 0.003 percent. The concentration of the 30% stock H2O2 was confirmed by measuring the absorbance at 240 nm using an extinction coefficient of 43.6 M^−1 cm^−1.
A time-course of the kinetic response of compound 1 to H2O2 at 100 mM H2O2 is illustrated in FIG. 10. Multiple (3) peaks, including compound 1, were observed by HPLC. […] The possible side products are shown below.

[4] = 50 mM HEPES buffer, aqueous buffer, 50 mM HEPES pH 7, compound 1 at room temperature overnight, read-out: solubility in buffer solution

| uncaging without H2O2 [1] | solubility [2, 4] [µg/mL] | solubility ([2]; organic solvent or mixture, DMSO, clear solution, read-out: solubility in DMSO) [µg/mL] | stability of maleimide moiety in the presence of H2O2 [3] | Structure (SMILES) |
| --- | --- | --- | --- | --- |
| Slow uncaging | < 2000 | ≥ 2000 | maleimide moiety is unstable | CC1(C)[C@@H]2CC3OB(c4ccc5c(c4)Oc4cc(B6OC7C[C@@H]8C[C@@H](C8(C)C)[C@]7(C)O6)ccc4C54OC(=O)c5cc(NC(=O)CCOCCOCCNC(=O)CCN6C(=O)C=CC6=O)ccc54)O[C@@]3(C)[C@H]1C2 (stereo partly drawn) [Compound 1, 3-(2,5-dioxo-2,5-dihydro-1H-pyrrol-1-yl)-N-(2-(2-(3-oxo-3-((3-oxo-3′,6′-bis((3aS,4S,6S)-3a,5,5-trimethylhexahydro-4,6-methanobenzo[d][1,3,2]dioxaborol-2-yl)-3H-spiro[isobenzofuran-1,9′-xanthen]-5-yl)amino)propoxy)ethoxy)ethyl)propanamide] |
|  | ≥ 1500 |  |  | O=C(CCN1C(=O)C=CC1=O)NCCOCCOCCC(=O)Nc1ccc2c(c1)C(=O)OC21c2ccc(O)cc2Oc2cc(O)ccc21 [Compound 2, N-(3′,6′-dihydroxy-3-oxo-3H-spiro[isobenzofuran-1,9′-xanthen]-5-yl)-3-(2-(2-(3-(2,5-dioxo-2,5-dihydro-1H-pyrrol-1-yl)propanamido)ethoxy)ethoxy)propanamide] |
| Slow uncaging |  |  |  | CC1(C)[C@@H]2C[C@H]1C1OB(c3ccc4c(c3)Oc3cc(B5OC6C[C@@H]7C[C@@H](C7(C)C)[C@]6(C)O5)ccc3C43OC(=O)c4cc(NC(=O)CCOCCOCCNC(=O)CCN5C(=O)CC(SC[C@H](N)C(=O)O)C5=O)ccc43)O[C@@]1(C)C2 (stereo partly drawn) [Compound 3, S-(2,5-dioxo-1-(3-oxo-3-((2-(2-(3-oxo-3-((3-oxo-3′-((3aS,4S,6S)-3a,5,5-trimethylhexahydro-4,6-methanobenzo[d][1,3,2]dioxaborol-2-yl)-6′-((4R,6R,7aS)-5,5,7a-trimethylhexahydro-4,6-methanobenzo[d][1,3,2]dioxaborol-2-yl)-3H-spiro[isobenzofuran-1,9′-xanthen]-5-yl)amino)propoxy)ethoxy)ethyl)amino)propyl)pyrrolidin-3-yl)cysteine] |
